Results reported in US6774263B1, “Pharmaceutically active compound and methods of use” (Cambridge Neuroscience, Inc., priority 1997, dated 2004).
Where a name gives a salt, the structure may show the parent alone.

Legend:
rats [1] = assay: Rat rotarod motor coordination test; assay type: in vivo
Method: The effects of the hydrochloride salt of (t)-N-(2-chloro-5-methylthiophenyl)-N′-(3-methylsulfinylphenyl)-N′-methylguanidine (compound (I)) on motor coordination were assessed using the rotarod test. Drug solutions were administered i.v. through the tail vein of test rats in a volume of 5.0 ml/kg at a rate of 1 ml/min. The percentage of animals in each treatment group that fell from the rotarod at each of the four time points tested is summarized in the following Table I. Control was 20% C.D. N in each of the Tables below specifies the number of animals in each test group.
The latency for falling from the rotarod was statistically analyzed using analysis of variance (ANOVA), and a Neumann Keuls post-hoc was applied when appropriate. […] In FIG. 1, “**” designates P<0.01 and “***” designates P<0.001.
(§1) The acetate salt of (−)-N-(2-chloro-5-methylthiophenyl)-N′-(3-methylsulfinylphenyl)-N′-methylguanidine was also tested in the same rotarod assay protocol as described in Part A above. Drug solutions were administered i.v. through the tail vein in a volume of 5 ml/kg at a rate of 1 ml/min. In Table II, Control (1) is 60 mM Acetate Buffer in 0.3M mannitol at 0.06 and 0.125 mg/kg doses and Control (2) is 60 mM Acetate Buffer in 0.3M mannitol at 0.25 and 0.5 mg/kg doses.
as §1, with “(+)-N-(2-chloro-5-methylthiophenyl)-N′-(3-methylsulfinylphenyl)-N′-methylguanidine” for “(−)-N-(2-chloro-5-methylthiophenyl)-N′-(3-methylsulfinylphenyl)-N′-methylguanidine”, “III,” for “II,”
The results for compounds of the invention can be compared to those obtained for MK-801, i.e. (+)-5-methyl-10,11-dihydro-5H-dibenzo[a,d]cyclohepten-5,10-imine maleate. In the rotarod test for MK-801, drug solutions were administered i.v. through the tail vein of each test rat in a volume of 5 ml/kg at a rate of 1 ml/min. The control was 0.9% saline solution.

rats [2] = assay: Rat MCAO ischemia model; assay type: in vivo; conditions: in thirds at 10 min, 1 h and 2 h
Method: A. The hydrochloride salt of (±)-N-(2-chloro-5-methylthiophenyl)-N′-(3-methylsulfinylphenyl)-N′-methylguanidine (compound (I)) was tested in the rat MCAO ischemia model with % reduction in total lesion volume (mm^3) determined by the following protocol.
Rats were anaesthetized with isoflurane and focal ischemia was induced by directly ligating the main trunk of MCA using a bipolar electrocoagulor. Coronal sections (seven sections, 2.0 mm intervals) were collected and incubated in 2,3,5-triphenyltetrazolium chloride (TTC) solution for 15 minutes at 37° C., then fixed in 4% paraformaldehyde solution in the dark at 4° C. for at least 48 hours. Seven sections of each brain were photographed and analyzed. The areas that were not stained red with TTC were measured as infarction.
The test animals were treated with the test compound and control (mannitol) as follows. Ten minutes after the MCAO incident the test animals were administered (i.v. infusion/10 minutes) with one third of the total dose of the test compound (total doses specified below); 1 hour after that first dosing the test animals were given another one third of the total dose of the test compound; and then 2 hours after that first dosing the test animals were given another one third of the total dose of the test compound. Mannitol was administered to the control group at the first dosing only.
Sprague-Dawley rats with body weights of 270-320 grams were used in the study.

[3] = cited from earlier work
mouse = conditions: in vivo; cited from earlier work
rat pups = assay: Rat pup hypoxia-ischemia model; assay type: in vivo
Method: A. The hydrochloride salt of (±)-N-(2-chloro-5-methylthiophenyl)-N′-(3-methylsulfinylphenyl)-N′-methylguanidine was tested in the rat pup hypoxia-ischemia model with % reduction in total lesion volume determined at the specified test dose. A rat pup hypoxia-ischemia assay protocol of the following protocol was employed.
8 day-old rat pups weighing 17-23 grams were anaesthetized with isoflurane and the left common carotid artery ligated. Immediately prior to the hypoxia-ischemia (H-I) insult a test group of animals was injected intraperitoneally with 2 mg/kg, 5 mg/kg or 10 mg/kg of the test compound and a control group was treated with a corresponding dose of mannitol. Then, immediately after the H-I insult, the animals received a second equivalent dose, i.e. the test group of animals was injected intraperitoneally with 2 mg/kg (total 4 mg/kg administered in the two doses), 5 mg/kg (total 10 mg/kg administered in the two doses) or 10 mg/kg (total 20 mg/kg administered in the two doses) of the test compound and a control group was treated with a corresponding dose of mannitol. The animals were then allowed to recover for 1-2 hours and then exposed to 7.8% O2 in nitrogen for 78 minutes in an incubator at 36.5° C. The rat pups were returned to mothers immediately after the H-I insult. The animals were sacrificed two days after H-I insult, their brain was removed and cut into four 2 mm thick slices prior to staining with 2% 2,3,5-triphenyltetrazolium chloride (TTC) solution. The sections were then fixed with 4% paraformaldehyde solution in the dark at 4° C. for at least 48 hours. Four sections from each brain were imaged and analyzed using the IPLab system. The lesion area which was not stained red with TTC was measured as infarction.
B. The acetate salt of (+)-N-(2-chloro-5-methylthiophenyl)-N′-(3-methylsulfinylphenyl)-N′-methylguanidine was also tested in the rat pup hypoxia-ischemia model with % reduction in total lesion volume determined by the same protocol as specified in Part A above, except the rat pups were exposed to 7.8% O2 in nitrogen for 85 minutes.

rats [4] = assay: Irwin general behavior screen; assay type: in vivo, rat; conditions: times in minutes
Source text: See S. Irwin, Animal and Clinical Pharmacologic Techniques in Drug Evaluation, pages 36-54 (Year Book Medical Publishers, Chicago), which details the protocol of the Irwin behavior screen.

[5] = total dose 4.5 mg/kg i.v. infusion, 4.5 mg/kg
[6] = total dose 9 mg/kg i.v. infusion, 9 mg/kg
[7] = total dose 2.25 mg/kg i.v. infusion

CSc1ccc(Cl)c(NC(=N)N(C)c2cccc([S+](C)[O-])c2)c1 (single isomer, unassigned; (-)) [compound (IA), (−)-N-(2-chloro-5-methylthiophenyl)-N′-(3-methylsulfinylphenyl)-N′-methylguanidine]
latency for falling from the rotarod (falling times) (rats [1]; rat, in vivo): no statistically significant differences
latency for falling from the rotarod vs control groups (rats [1]; rat, in vivo): significantly shorter latencies
% reduction in total lesion volume (rats [2]; [5]): 1%
% reduction in total lesion volume (rats [2]; [6]): 22%

C[C@]12N[C@H](Cc3ccccc31)c1ccccc12 [MK-801, (+)-5-methyl-10,11-dihydro-5H-dibenzo[a,d]cyclohepten-5,10-imine maleate]
percentage of animals that fell from the rotarod (rats [1]; 0.01 mg/kg i.v., 15 min.): 38%
percentage of animals that fell from the rotarod (rats [1]; 0.01 mg/kg i.v., 60 min.): 13%
percentage of animals that fell from the rotarod (rats [1]; 0.01 mg/kg i.v., 120 min.): 25%
percentage of animals that fell from the rotarod (rats [1]; 0.05 mg/kg i.v., 15 min.): 86%
percentage of animals that fell from the rotarod (rats [1]; 0.05 mg/kg i.v., 60 min.): 57%
percentage of animals that fell from the rotarod (rats [1]; 0.05 mg/kg i.v., 120 min.): 29%
results in in vivo models of stroke [3]: good results
activity in mouse audiogenic tests (mouse): good activity

CSc1ccc(Cl)c(NC(=N)N(C)c2cccc([S+](C)[O-])c2)c1 (racemic) [compound (I), N-(2-chloro-5-methylthiophenyl)-N′-(3-methylsulfinylphenyl)-N′-methylguanidine]
lethality of pre-testing doses (rats [1]; rat, in vivo): lethal
% reduction in total lesion volume (rats [2]; [7]): 24%
% reduction in total lesion volume (rats [2]; total dose 4.5 mg/kg i.v. infusion): 32%
% reduction in total lesion volume (rats [2]; total dose 9 mg/kg i.v. infusion): 46%
% reduction in total lesion volume (rat pups; i.p. total dose of 10 mg/kg, 7.8% O2 for 78 minutes): 60%
% reduction in total lesion volume (rat pups; i.p. total dose of 20 mg/kg, 7.8% O2 for 78 minutes): 100%
behavioral effects observed in Irwin screen (rats [4]; 4 mg/kg i.v.): excitation (120-180′) sterotypies (sniffing 60-180′) fore-paw treading (120′) loss of traction (2 of 3, 120′)
behavioral effects observed in Irwin screen (rats [4]; 16 mg/kg i.v.): excitation (30-180′) sterotypies (head-weaving to 180′) fore-paw treading (to 180′) loss of traction (to 180′) hypothermia

CSc1ccc(Cl)c(NC(=N)N(C)c2cccc([S+](C)[O-])c2)c1 (single isomer, unassigned; (+)) [compound (IB), (+)-N-(2-chloro-5-methylthiophenyl)-N′-(3-methylsulfinylphenyl)-N′-methylguanidine]
latency for falling from the rotarod (falling times) (rats [1]; rat, in vivo): no statistically significant differences
latency for falling from the rotarod vs control groups (rats [1]; rat, in vivo): significantly shorter latencies
% reduction in total lesion volume (rats [2]; [7]): 23%
% reduction in total lesion volume (rats [2]; [5]): 32%
% reduction in total lesion volume (rats [2]; [6]): 34%
% reduction in total lesion volume (rat pups; i.p. total dose of 10 mg/kg, 7.8% O2 for 85 minutes): 78%
% reduction in total lesion volume (rat pups; i.p. total dose of 20 mg/kg, 7.8% O2 for 85 minutes): 93%
